According to publication PMC7046683 (Frontiers in Oncology, 2020):
Like-named read-outs stand apart in the source and are kept apart here.

What was measured:
[1] = Blood levels and metabolic ratios of tamoxifen and its metabolites after two tamoxifen injections, with saline or morphine (LC-MS/MS); settings: for Change of blood concentration, second vs first tamoxifen injection: saline co-injections
Protocol: Experiments were performed with 11- to 29-week-old female C57BL/6J mice (23 ± 4 g; Charles River, L'Arbresle, France). Animals were housed according to a 12-h light–dark cycle, at a temperature of 22°C ± 2°C and provided with food and water ad libitum. All procedures were performed in accordance with European directives (2010/63/EU) and were approved by the regional ethics committee and the French Ministry of Agriculture (license no. APAFIS#16827-2018092113192911 v4 to YG).
Statistical analysis was performed using GraphPad Prism 6 Software. […] Groups were compared using multiple t-tests.

[2] = mice; cited from earlier work
[3] = humans; cited from earlier work
[4] = read-out: Km for morphine glucuronidation; mice; cited from earlier work
[5] = 4OH-tamoxifen glucuronidation assay in liver microsomes, with or without morphine; assay type: in vitro ADME; settings: male, C57/BL6J, mouse
[6] = tamoxifen 10 mg/kg i.p. at 0 and 48 h
[7] = three i.p. injections of morphine 10 mg/kg at 0, 1 and 2 h

With `CC/C(=C(\c1ccc(OCCN(C)C)cc1)c1ccc(O[C@H]2O[C@@H](C(=O)O)[C@H](O)[C@@H](O)[C@@H]2O)cc1)c1ccccc1` [4OH-tamoxifen-glucuronide] the “Change of blood concentration, second vs first tamoxifen injection” value (shortened to “Change of blood concentration, second”) [1, 6] was “significant increase”.
In the case of `CC/C(=C(\c1ccccc1)c1ccc(OCCN(C)C)cc1)c1ccccc1` [tamoxifen], the Half-life [2] is given as 6.8 h and the Half-life [3] is given as 27 h.
For `CN1CC[C@]23c4c5ccc(O[C@@H]6O[C@H](C(=O)O)[C@@H](O)[C@H](O)[C@H]6O)c4O[C@H]2[C@@H](O)C=C[C@H]3[C@H]1C5` [M3G, morphine-3-glucuronide], the “Time at which the highest blood concentration was reached” value [7] was 2 h and the “Highest concentration in the blood” value (three i.p. injections of morphine 10 mg/kg at 0, 1 and 2 h, mean ± SEM) was 9,773 ± 1,274 pmol/ml.
In the case of `CN1CC[C@]23c4c5ccc(O)c4O[C@H]2[C@@H](O)C=C[C@H]3[C@H]1C5` [morphine, reference compound], the Km [4] is listed as 500 µM, the “Presence in blood after 8 h” value (three i.p. injections of morphine 10 mg/kg) is listed as “still present” and the “Time at which the highest blood concentration was reached” value [7] is listed as 2 h.
In the case of `CC/C(=C(\c1ccccc1)c1ccc(OCCNC)cc1)c1ccccc1` [N-desmethyltamoxifen], the “Change of blood concentration, second” value [1, 6] is reported as “significant increase”, the “Change of blood concentration after tamoxifen + morphine vs first injection of tamoxifen alone” value ([1]; tamoxifen 10 mg/kg i.p. at 0 and 48 h, morphine 10 mg/kg i.p. at 48, 49 and 50 h) is reported as “Only a tendency” and the “N-desmethyltamoxifen/tamoxifen ratio after morphine” value ([1]; tamoxifen + morphine 3 x 10 mg/kg i.p.) is reported as “not altered”. For the same compound, the “N-desmethyltamoxifen/tamoxifen ratio, second vs first tamoxifen injection” value ([1]; tamoxifen twice, saline) was “no difference”.
In the case of `CC/C(=C(/c1ccc(OCCNC)cc1)c1ccc(O[C@@H]2O[C@H](C(=O)O)[C@@H](O)[C@H](O)[C@H]2O)cc1)c1ccccc1` [endoxifen-glucuronide], the “Change of blood concentration, second” value [1, 6] is reported as “did not vary significantly” and the “Increase of endoxifen-glucuronide/endoxifen ratio, second vs first tamoxifen injection” value ([1]; tamoxifen 10 mg/kg i.p. twice, saline, t = 2 h) is reported as 3 fold.
In the case of `CC/C(=C(\c1ccc(O)cc1)c1ccc(OCCN(C)C)cc1)c1ccccc1` [4OH-tamoxifen], the Km at 20 s [5] is reported as 68 µM.
